Data set [1] can be described thus: Antiproliferative effect on MT-4 cells. It is filed as cell-based, human. To be noted: human, mt-4 cells. An excerpt:
(§1) Under in vitro conditions, an infection of T lymphocytes with HIV leads to the death of the cells within a few days. The MT-4 cells, described by Harada et al. in Science 229, 563 (1985), were used in a test system (Matthes et al., Biochem. Biophys., Res. Commun. 153, 825 (1988)), to test to what extent the inventive nucleosides can nullify the cytocidal effect of HIV-1 (HTLV IIIa) on this T cell line. In addition, the antiproliferative effectiveness of the nucleosides investigated is listed and, moreover, as the concentration which decreases the proliferation of the MT-4 cells by 50% (CD50). […]
(§2) Comparison of the antiviral and antiproliferative effectiveness
(§3) of nucleoside analogies using MT-4 cells

Another data set concerns HIV-1 (HTLV IIIa). Nature of the data set: Inhibition of the cytopathic effect of HIV on T lymphocyte cells (protection of MT-4 cells). The class given is cell-based. To be noted: for EC50: Human immunodeficiency virus 1, MT4, 50% protection of MT-4 cells against HIV-1 (HTLV IIIa), read-out: 50% antiviral dose (ED50).
Excerpt: 2. Inhibition of the cytopathic effect of HIV on T lymphocyte cells
Under in vitro conditions, an infection of T lymphocytes with HIV leads to the death of the cells within a few days. The MT-4 cells, described by Harada et al. in Science 229, 563 (1985), were used in a test system (Matthes et al., Biochem. Biophys., Res. Commun. 153, 825 (1988)), to test to what extent the inventive nucleosides can nullify the cytocidal effect of HIV-1 (HTLV IIIa) on this T cell line. In addition, the antiproliferative effectiveness of the nucleosides investigated is listed and, moreover, as the concentration which decreases the proliferation of the MT-4 cells by 50% (CD50).
as §2, §3
(Protection from cytopathic effect is a common read-out in antiviral testing.)

Data set [2] relates to colony-forming cells of the bone marrow of the mouse (GM-CFU). Nature of the data set: Growth inhibition of colony-forming cells of the bone marrow (GM-CFU). It is filed as cell-based. As to conditions: concentrations up to 100 micromoles/L.
The next data set relates to MT-4 cells. Nature of the data set: Antiproliferative effect on MT-4 cells. The class given is cell-based, human.
Excerpt: as §1, §2, §3

Data set [3] in a line: In vitro cytotoxicity to cell cultures, HELFI. The class given is cell-based. As to conditions: human, helfi lung fibroblasts; read-out: CD50, antiproliferative effect. An excerpt: (§4) 3. In vitro cytotoxicity of 3'-fluoro-4-thiothymidine to cell cultures
(§5) A series of further human cell lines was included in the investigation of the antiproliferative effect of 3'-fluoro-4-thiothymidine and the following CD50 were found: […]

Data set [4] is described as follows: In vitro cytotoxicity to cell cultures, H-8. The class given is cell-based. To be noted: human, h-8 cells; read-out: CD50, antiproliferative effect.
Excerpt: as §4, §5

A short description of data set [5]: In vitro cytotoxicity to cell cultures, REH. To be noted: human, reh cells; read-out: CD50, antiproliferative effect. The class given is cell-based.
Excerpt: as §4, §5

A short description of data set [6]: In vitro cytotoxicity to cell cultures, Molt-4. It is filed as cell-based. As to conditions: human, molt-4 cells; read-out: CD50, antiproliferative effect.
Excerpt: as §4, §5

A further data set deals with AIDS patients. As to conditions: cited from earlier work.
The next data set concerns the target T1, DNA polymerase (Homo sapiens, UniProt P09884).
T1 sequence (P09884 1-1462): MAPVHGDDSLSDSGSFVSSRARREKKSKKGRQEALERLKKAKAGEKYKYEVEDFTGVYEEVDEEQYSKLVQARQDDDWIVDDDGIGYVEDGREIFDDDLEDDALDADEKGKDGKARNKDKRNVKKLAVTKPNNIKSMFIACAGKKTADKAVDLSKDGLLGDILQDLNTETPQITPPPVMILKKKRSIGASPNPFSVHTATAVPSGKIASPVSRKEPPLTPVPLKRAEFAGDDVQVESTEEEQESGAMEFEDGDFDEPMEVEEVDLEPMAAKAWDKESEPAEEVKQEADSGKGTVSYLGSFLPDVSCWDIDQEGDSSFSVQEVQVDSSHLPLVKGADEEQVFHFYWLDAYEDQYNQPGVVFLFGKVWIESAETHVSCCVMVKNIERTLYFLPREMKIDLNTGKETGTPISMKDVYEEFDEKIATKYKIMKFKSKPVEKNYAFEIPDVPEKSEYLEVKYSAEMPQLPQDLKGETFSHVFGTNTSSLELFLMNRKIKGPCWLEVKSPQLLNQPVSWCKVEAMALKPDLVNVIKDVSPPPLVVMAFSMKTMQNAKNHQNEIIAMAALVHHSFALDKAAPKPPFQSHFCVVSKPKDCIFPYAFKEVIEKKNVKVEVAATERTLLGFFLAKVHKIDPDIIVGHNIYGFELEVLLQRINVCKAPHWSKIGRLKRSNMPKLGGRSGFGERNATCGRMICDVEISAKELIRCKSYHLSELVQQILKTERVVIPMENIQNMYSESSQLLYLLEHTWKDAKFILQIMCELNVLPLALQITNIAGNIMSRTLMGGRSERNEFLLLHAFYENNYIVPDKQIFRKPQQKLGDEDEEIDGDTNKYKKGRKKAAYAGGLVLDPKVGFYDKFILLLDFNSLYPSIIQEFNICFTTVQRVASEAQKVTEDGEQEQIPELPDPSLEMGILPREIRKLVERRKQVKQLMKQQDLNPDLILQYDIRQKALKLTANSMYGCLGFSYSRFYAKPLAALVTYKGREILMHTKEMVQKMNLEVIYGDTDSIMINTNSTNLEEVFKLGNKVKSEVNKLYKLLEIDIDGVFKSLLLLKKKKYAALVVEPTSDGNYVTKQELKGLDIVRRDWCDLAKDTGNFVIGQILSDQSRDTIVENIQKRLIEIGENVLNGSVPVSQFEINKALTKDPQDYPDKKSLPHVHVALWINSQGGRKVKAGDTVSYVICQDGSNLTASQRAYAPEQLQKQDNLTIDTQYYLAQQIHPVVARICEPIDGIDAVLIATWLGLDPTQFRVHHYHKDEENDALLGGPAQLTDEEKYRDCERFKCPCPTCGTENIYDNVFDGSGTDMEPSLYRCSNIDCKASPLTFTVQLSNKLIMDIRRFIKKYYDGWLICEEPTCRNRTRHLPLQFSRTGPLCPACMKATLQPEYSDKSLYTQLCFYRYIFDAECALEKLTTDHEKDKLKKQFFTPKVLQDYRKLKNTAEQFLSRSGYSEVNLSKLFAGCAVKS
Nature of the data set: Inhibition of cellular DNA polymerase (enzyme mainly responsible for cellular replication). It is filed as biochemical. To be noted: read-out: ID50 (concentration inhibiting the polymerase to the extent of 50%), DNA polymerase. As to the method:
(§6) For these investigations, the effect of the compound on the activity of HIV-RT as well as on the cellular DNA polymerase was determined using the methods described by Matthes et al., in Biochem. Biophys. Res. Commun. 148, 78 (1987). Different concentrations of 3'-fluoro-4-thiothymidine triphosphate were added to the enzyme preparations. The concentrations of 3'-fluoro-4-thiothymidine triphosphate, which inhibit the polymerases investigated to the extent of 50% (ID50), were determined from the inhibition curves obtained. […] Accordingly 3'-fluoro-4-thiothymidine triphosphate inhibits the HIV-RT 700 times more effectively than the cellular DNA polymerase and thus has a largely selective effect on the HIV replication.

Data set [7] has as its target T2, HIV-associated reverse transcriptase (HIV-RT) (Human immunodeficiency virus type 1 group M subtype B, UniProt P04585).
T2 construct: HIV-associated reverse transcriptase (HIV-RT)
Nature of the data set: Inhibition of the HIV-associated reverse transcriptase (HIV-RT). It is filed as biochemical. The procedure:
1. Selective inhibition of the HIV-associated reverse transcriptase (HIV-RT) by 3'-fluoro-4-thiothymidine-triphosphate
as §6

The target in the next data set is DNA polymerase β (Homo sapiens, UniProt P06746). Nature of the data set: Inhibition of DNA polymerase β (cellular DNA repair enzyme). It is filed as biochemical. As to conditions: read-out: ID50 (concentration inhibiting the polymerase to the extent of 50%), DNA polymerase β. As to the method:
as §6

The mark [8] stands for this setting: AIDS patients with Pneumocystis carinii pneumonia.

The structures appear in SMILES notation.

In the case of `O=c1nc(NO)ccn1[C@H]1C[C@H](F)[C@@H](CO)O1` [1-(2,3-Dideoxy-3-fluoro-β-D-glycero-ribofuranosyl)-4-hydroxylamino-(1H)-pyrimidine-2-one], the CC50 in data set [1] was 100 µM. In the data set with HIV-1 (HTLV IIIa), the EC50 was determined as 100 µM.

Regarding `Cc1cn([C@H]2C[C@H](F)[C@@H](CO)O2)c(=O)nc1NO` [1-(2,3-Dideoxy-3-fluoro-β-D-ribofuranosyl)-4-hydroxylamino-5-methyl-(1H)-pyrimidine-2-one], in data set [1], the CC50 was 300 µM. For the same compound, the EC50 with HIV-1 (HTLV IIIa) was determined as 100 µM.

Consider `CSc1nc(=O)n([C@H]2C[C@H](F)[C@@H](CO)O2)cc1C` [1-(2,3-Dideoxy-3-fluoro-β-D-ribofuranosyl)-4-methylmercapto-5-methyl-(1H)-pyrimidine-2-one], for which the CC50 in data set [1] is more than 1000 µM. The EC50 in the data set on HIV-1 (HTLV IIIa) is more than 1000 µM.

As for `Cc1cn([C@H]2C[C@H](F)[C@@H](CO)O2)c(=O)[nH]c1=S` [1-(2,3-Dideoxy-3-fluoro-β-D-ribofuranosyl)-4-thiothymine], in data set [2], the “growth-inhibiting effect on colony-forming cells of the bone marrow” value is “no growth-inhibiting effect whatsoever”. Also, the “effect on cell proliferation (in words)” value in the data set on MT-4 cells (MT-4 cells) is “hardly any effect on the cell proliferation”. For the same compound, the “cytotoxicity (summary in words)” value in the data set on MT-4 cells (summary of the cell tests) was “very slight cytotoxicity”. Moreover, the CC50 is 480 µM in data set [1]; 700 µM in [3]; not below 800 µM in data set [4]; 500 µM in data set [5]; not below 1000 µM in data set [6]. Besides, in the data set on HIV-1 (HTLV IIIa), the “inhibition of HIV replication (summary in words)” value was “effective inhibitor of HIV replication”. The EC50 in the data set with HIV-1 (HTLV IIIa) came out at 1.8 µM.

As for `O=c1[nH]c(=S)ccn1[C@H]1C[C@H](F)[C@@H](CO)O1` [1-(2,3-Dideoxy-3-fluoro-β-D-ribofuranosyl)-4-thiouracil], the CC50 in [1] was 150 µM. Also, in the data set on HIV-1 (HTLV IIIa), the EC50 is 15 µM.

In [1], `Cc1cn([C@H]2C=C[C@@H](CO)O2)c(=O)[nH]c1=S` [1-(2,3-Dideoxy-β-D-glycero-pent-2-enofuranosyl)-4-thiothymine] showed a CC50 of 350 µM. In addition, the EC50 with HIV-1 (HTLV IIIa) was found to be 0.85 µM.

For `CSc1ccn([C@H]2C[C@H](F)[C@@H](CO)O2)c(=O)n1` [1-(2,3-dideoxy-3-fluoro-β-D-ribofuranosyl)-4-methylmercapto-pyrimidine-2-one], the CC50 in data set [1] was 50 µM. The EC50 with HIV-1 (HTLV IIIa) stood at 12 µM.

`Cc1cnc(=O)n([C@H]2C[C@H](F)[C@@H](CO)O2)c1` [1-(2,3-dideoxy-3-fluoro-β-D-ribofuranosyl)-5-methyl-pyrimidine-2-one]: the CC50 in data set [1] is more than 400 µM. Further, the EC50 in the data set with HIV-1 (HTLV IIIa) came out at 12 µM.

With `O=c1ncccn1[C@H]1C[C@H](F)[C@@H](CO)O1` [1-(2,3-dideoxy-3-fluoro-β-D-ribofuranosyl)-pyrimidine-2-one], the CC50 in data set [1] was more than 800 µM. Moreover, the EC50 in the data set with HIV-1 (HTLV IIIa) came out at 30 µM.

As for `Cc1cn([C@H]2C[C@H](N=[N+]=[N-])[C@@H](CO)O2)c(=O)[nH]c1=O` [3'-azidothymidine], in the data set on AIDS patients (setting [8]), the “clinical and neurological findings (in words)” value was “improvements in clinical and neurological findings”; the “immunological functions (in words)” value is “occasional restoration of certain immunological functions”; the “life prolonging effects (in words)” value is reported as “unambiguous life prolonging effects”. The “patients in whom toxic side effects on the bone marrow make blood transfusions necessary” value with AIDS patients (AIDS patients) was “about 50%”.

As for `Cc1cn([C@H]2C[C@H](F)[C@@H](COP(=O)(O)OP(=O)(O)OP(=O)(O)O)O2)c(=O)[nH]c1=S` [3'-fluoro-4-thiothymidine triphosphate, 1-(2,3-Dideoxy-3-fluoro-β-D-ribofuranosyl)-4-thiothymine-5'-triphosphate], the IC50 at DNA polymerase came to 140 µM; in [7] (HIV-RT, read-out: ID50 (concentration inhibiting the polymerase to the extent of 50%), HIV-RT), 0.3 µM; on DNA polymerase β, 7 µM. The “inhibits the HIV-RT times more effectively than the cellular DNA polymerase” value in data set [7] (HIV-RT versus cellular DNA polymerase) came to 700 times.

Take `Cc1ccc(C(=O)Nc2ccc(S(=O)(=O)O)c3cc(S(=O)(=O)O)cc(S(=O)(=O)O)c23)cc1NC(=O)c1cccc(NC(=O)Nc2cccc(C(=O)Nc3cc(C(=O)Nc4ccc(S(=O)(=O)O)c5cc(S(=O)(=O)O)cc(S(=O)(=O)O)c45)ccc3C)c2)c1` [Suranim]: the “tolerance and effectiveness (in words)” value in the data set with AIDS patients (clinically tested) was “have not yet attained the necessary tolerance and the hoped-for effectiveness”.

Source of the values: US5496935A, “2',3'-dideoxynucleoside pyrimidine compounds and carbocyclic analogs” (Max-Delbru/ ck-Centrum, priority 1994, dated 1996).
